Measured values taken from patent publication US9051270B2, “Pyridone amides as modulators of sodium channels” (Vertex Pharmaceuticals Incorporated, priority 2013, dated 2015).

What follows are compounds tested against human Nav1.8 (Homo sapiens (Human), UniProt Q9Y5Y9) (assay: E-VIPR optical membrane potential assay with electrical stimulation). Conditions: HEK cells expressing human Nav1.8.
Assay type: cell-based
From the text: Sodium channels are voltage-dependent proteins that can be activated by inducing membrane voltage changes by applying electric fields. […] The instrument comprises a microtiter plate handler, an optical system for exciting the coumarin dye while simultaneously recording the coumarin and oxonol emissions, a waveform generator, a current- or voltage-controlled amplifier, and a device for inserting electrodes in well. Under integrated computer control, this instrument passes user-programmed electrical stimulus protocols to cells within the wells of the microtiter plate.
24 hours before the assay on E-VIPR, HEK cells expressing human Nav1.8 were seeded in 384-well poly-lysine coated plates at 15,000-20,000 cells per well. […] Cells were grown in vented cap flasks, in 90% humidity and 5% CO2.
To make the solution added volume of 10% Pluronic F127 stock equal to volumes of CC2-DMPE+DiSBAC6(3). The order of preparation was first mixing Pluronic and CC2-DMPE, then adding DiSBAC6(3) while vortexing, then adding Bath1+β-Cyclodextrin.
1) Pre-spotted compounds (in neat DMSO) into compound plates. […] Final compound plate volume was 80 μL (80-fold intermediate dilution from 1 μL DMSO spot; 160-fold final dilution after transfer to cell plate).
2) Prepared Hexyl Dye Solution.
3) Prepared cell plates. On the day of the assay, medium was aspirated and cells were washed three times with 100 μL of Bath1 Solution, maintaining 25 μL residual volume in each well.
4) Dispensed 25 μL per well of Hexyl Dye Solution into cell plates. Incubated for 20-35 minutes at room temp or ambient conditions.
5) Dispensed 80 μL per well of Bath1 into compound plates. Acid Yellow-17 (1 mM) was added and Potassium Chloride was altered from 4.5 to 20 mM depending on the NaV subtype and assay sensitivity.
6) Washed cell plates three times with 100 μL per well of Bath1, leaving 25 μL of residual volume. Then transferred 25 uL per well from Compound Plates to Cell Plates. Incubated for 20-35 minutes at room temp/ambient condition.
7) Read Plate on E-VIPR. […] A pre-stimulus recording was performed for 0.5 seconds to obtain the un-stimulated intensities baseline. The stimulatory waveform was followed by 0.5 seconds of post-stimulation recording to examine the relaxation to the resting state.
Data was analyzed and reported as normalized ratios of emission intensities measured in the 460 nm and 580 nm channels. The response as a function of time was reported as the ratios obtained using the following formula: […]
The data was further reduced by calculating the initial (Ri) and final (Rf) ratios. These were the average ratio values during part or all of the pre-stimulation period, and during sample points during the stimulation period. The response to the stimulus R=Rf/Ri was then calculated and reported as a function of time.
Control responses were obtained by performing assays in the presence of a compound with the desired properties (positive control), such as tetracaine, and in the absence of pharmacological agents (negative control). Responses to the negative (N) and positive (P) controls were calculated as above. The compound antagonist activity A is defined as:
[formula] where R is the ratio response of the test compound

Chain of human Nav1.8 (Q9Y5Y9 whole entry): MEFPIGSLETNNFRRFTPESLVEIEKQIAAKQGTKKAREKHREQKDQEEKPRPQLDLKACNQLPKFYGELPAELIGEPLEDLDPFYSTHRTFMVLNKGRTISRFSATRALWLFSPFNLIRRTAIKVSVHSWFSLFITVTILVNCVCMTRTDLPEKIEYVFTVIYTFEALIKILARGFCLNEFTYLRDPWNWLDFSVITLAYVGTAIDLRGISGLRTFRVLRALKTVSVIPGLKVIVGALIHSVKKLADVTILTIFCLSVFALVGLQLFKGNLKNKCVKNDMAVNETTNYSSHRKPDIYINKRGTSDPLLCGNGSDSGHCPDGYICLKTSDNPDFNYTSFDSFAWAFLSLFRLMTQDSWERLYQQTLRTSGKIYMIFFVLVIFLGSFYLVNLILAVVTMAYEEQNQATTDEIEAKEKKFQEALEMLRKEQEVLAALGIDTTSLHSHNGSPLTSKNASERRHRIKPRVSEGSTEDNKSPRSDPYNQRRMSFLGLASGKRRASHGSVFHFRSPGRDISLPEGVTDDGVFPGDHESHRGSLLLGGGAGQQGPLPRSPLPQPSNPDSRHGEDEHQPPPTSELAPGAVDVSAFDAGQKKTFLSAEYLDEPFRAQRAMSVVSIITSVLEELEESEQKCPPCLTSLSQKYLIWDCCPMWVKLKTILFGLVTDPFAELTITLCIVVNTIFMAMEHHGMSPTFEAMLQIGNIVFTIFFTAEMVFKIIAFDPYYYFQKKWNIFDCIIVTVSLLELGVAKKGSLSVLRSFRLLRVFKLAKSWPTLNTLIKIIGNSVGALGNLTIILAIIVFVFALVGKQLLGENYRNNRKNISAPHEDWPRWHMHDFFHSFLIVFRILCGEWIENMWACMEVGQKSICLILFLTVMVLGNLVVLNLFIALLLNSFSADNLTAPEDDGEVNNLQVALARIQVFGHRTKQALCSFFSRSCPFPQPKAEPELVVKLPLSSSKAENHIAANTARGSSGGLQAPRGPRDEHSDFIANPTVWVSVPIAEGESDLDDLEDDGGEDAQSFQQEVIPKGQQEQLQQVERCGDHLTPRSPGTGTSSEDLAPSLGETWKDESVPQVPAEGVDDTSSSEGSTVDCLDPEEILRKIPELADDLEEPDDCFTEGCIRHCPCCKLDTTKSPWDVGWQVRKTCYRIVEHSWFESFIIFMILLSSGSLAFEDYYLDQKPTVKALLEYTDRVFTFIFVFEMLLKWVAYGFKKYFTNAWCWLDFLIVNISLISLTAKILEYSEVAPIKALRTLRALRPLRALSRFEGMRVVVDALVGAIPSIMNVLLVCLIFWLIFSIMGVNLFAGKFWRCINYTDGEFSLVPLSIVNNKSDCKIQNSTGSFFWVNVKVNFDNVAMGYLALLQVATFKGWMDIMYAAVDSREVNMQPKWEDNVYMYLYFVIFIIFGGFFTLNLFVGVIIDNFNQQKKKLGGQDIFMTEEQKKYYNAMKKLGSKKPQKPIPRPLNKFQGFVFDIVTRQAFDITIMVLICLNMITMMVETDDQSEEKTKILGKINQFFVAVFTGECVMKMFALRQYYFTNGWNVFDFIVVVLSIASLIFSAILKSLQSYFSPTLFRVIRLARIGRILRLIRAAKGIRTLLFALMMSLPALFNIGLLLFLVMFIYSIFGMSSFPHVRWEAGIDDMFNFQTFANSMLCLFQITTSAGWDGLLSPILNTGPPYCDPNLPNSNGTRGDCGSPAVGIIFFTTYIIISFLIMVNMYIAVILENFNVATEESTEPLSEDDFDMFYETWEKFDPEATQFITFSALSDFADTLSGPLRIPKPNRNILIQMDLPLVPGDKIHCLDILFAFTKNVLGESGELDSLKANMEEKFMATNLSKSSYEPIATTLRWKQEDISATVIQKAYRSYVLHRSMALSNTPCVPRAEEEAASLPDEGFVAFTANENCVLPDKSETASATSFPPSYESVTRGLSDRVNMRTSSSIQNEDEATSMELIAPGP

| Compound | IC50 |
| --- | --- |
| O=C(Nc1cc[nH]c(=O)c1)c1cc(C(F)(F)F)ccc1OCC1CCCC1 [Compound 130, 2-(cyclopentylmethoxy)-N-(2-oxo-1,2-dihydropyridin-4-yl)-5-(trifluoromethyl)benzamide] | 5100 nM |
| COc1cc(F)ccc1Oc1ccc(Cl)cc1C(=O)Nc1cc[nH]c(=O)c1 [Compound 70, 5-chloro-2-(4-fluoro-2-methoxyphenoxy)-N-(2-oxo-1,2-dihydropyridin-4-yl)benzamide] | 13 nM |
| COc1c(F)cccc1Oc1cc(C(F)(F)F)ccc1C(=O)Nc1cc[nH]c(=O)c1 [Compound 87, 2-(3-fluoro-2-methoxyphenoxy)-N-(2-oxo-1,2-dihydropyridin-4-yk)-4-(trifluoromethyl)benzamide] | 27 nM |
| O=C(Nc1cc[nH]c(=O)c1)c1cc(OC(F)(F)F)ccc1OC1CCCCC1 [Compound 137, 2-(cyclohexyloxy)-N-(2-oxo-1,2-dihydropyridin-4-yl)-5-(trifluoromethoxy)benzamide] | 12600 nM |
| COc1cc(F)cc(Oc2ccc(C(F)(F)F)cc2C(=O)Nc2cc[nH]c(=O)c2)c1 [Compound 57, 2-(3-fluoro-5-methoxyphenoxy)-N-(2-oxo-1,2-dihydropyridin-4-yl)-5-(trifluoromethyl)benzamide] | 6900 nM |
| COc1cccc(F)c1Oc1ccc(C(F)(F)F)cc1C(=O)Nc1cc[nH]c(=O)c1 [Compound 48, 2-(2-fluoro-6-methoxyphenoxy)-N-(2-oxo-1,2-dihydropyridin-4-yl)-5-(trifluoromethyl)benzamide] | 2700 nM |
| Cc1ccc(Oc2ccc(OC(F)(F)F)cc2C(=O)Nc2cc[nH]c(=O)c2)cc1 [Compound 35, N-(2-oxo-1,2-dihydropyridin-4-yl)-2-(p-tolyloxy)-5-(trifluoromethoxy)benzamide] | 470 nM |
| O=C(Nc1ccc(=O)[nH]c1)c1ccc(C(F)(F)F)cc1Oc1ccc(C(F)(F)F)nc1 [Compound 145, N-(6-oxo-1,6-dihydropyridin-3-yl)-4-(trifluoromethyl)-2-((6-(trifluoromethyl)pyridin-3-yl)oxy)benzamide] | 5000 nM |
| COc1cc(F)ccc1Oc1ccc(OC(F)(F)F)cc1C(=O)Nc1cc[nH]c(=O)c1 [Compound 42, 2-(4-fluoro-2-methoxyphenoxy)-N-(2-oxo-1,2-dihydropyridin-4-yl)-5-(trifluoromethoxy)benzamide] | 68 nM |
| CCCOc1ccc(Oc2ccc(F)cc2C(=O)Nc2cc[nH]c(=O)c2)cc1 [Compound 100, 5-fluoro-N-(2-oxo-1,2-dihydropyridin-4-yl)-2-(4-propoxyphenoxy)benzamide] | 155 nM |
| O=C(Nc1cc[nH]c(=O)c1)c1cc(F)ccc1Oc1ccc(OCC2CC2)cc1 [Compound 108, 2-(4-(cyclopropylmethoxy)phenoxy)-5-fluoro-N-(2-oxo-1,2-dihydropyridin-4-yl)benzamide] | 285 nM |
| O=C(Nc1cc[nH]c(=O)c1)c1cc(F)ccc1Oc1ccc(OCC(F)(F)F)cc1 [Compound 107, 5-fluoro-N-(2-oxo-1,2-dihydropyridin-4-yl)-2-(4-(2,2,2-trifluoroethoxy)phenoxy)benzamide] | 390 nM |
| O=C(Nc1cc[nH]c(=O)c1)c1cc(OC(F)(F)F)ccc1Oc1c(F)cccc1F [Compound 34, 2-(2,6-difluorophenoxy)-N-(2-oxo-1,2-dihydropyridin-4-yl)-5-(trifluoromethoxy)benzamide] | 12000 nM |
| O=C(Nc1cc[nH]c(=O)c1)c1ccc(C(F)(F)F)cc1Oc1ccccc1OC(F)(F)F [Compound 80, N-(2-oxo-1,2-dihydropyridin-4-yl)-2-(2-(trifluoromethoxy)phenoxy)-4-(trifluoromethyl)benzamide] | 105 nM |
| COc1ccc(Oc2cc(C(F)(F)F)ccc2C(=O)Nc2cc[nH]c(=O)c2)c(Cl)c1F [Compound 110, 2-(2-chloro-3-fluoro-4-methoxyphenoxy)-N-(2-oxo-1,2-dihydropyridin-4-yl)-4-(trifluoromethyl)benzamide] | 890 nM |
| 2-(4-fluorophenoxy)-N-(1-(2-hydroxyethyl)-2-oxo-1,2-dihydropyridin-4-yl)-4-(trifluoromethyl)benzamide [Compound 85] | 2800 nM |
| CC(C)COc1ccc(C(F)(F)F)cc1C(=O)Nc1cc[nH]c(=O)c1 [Compound 131, 2-isobutoxy-N-(2-oxo-1,2-dihydropyridin-4-yl)-5-(trifluoromethyl)benzamide] | 1500 nM |

| Compound | IC50 |
| --- | --- |
| O=C(Nc1cc[nH]c(=O)c1)c1cc(C(F)(F)F)ccc1Oc1ccc(Cl)cc1 [Compound 58, 2-(4-chlorophenoxy)-N-(2-oxo-1,2-dihydropyridin-4-yl)-5-(trifluoromethyl)benzamide] | 54 nM |
| N#Cc1ccc(Oc2ccc(C(F)(F)F)cc2C(=O)Nc2cc[nH]c(=O)c2)cc1 [Compound 25, 2-(4-cyanophenoxy)-N-(2-oxo-1,2-dihydropyridin-4-yl)-5-(trifluoromethyl)benzamide] | 1100 nM |
| O=C(Nc1cc[nH]c(=O)c1)c1ccc(Cl)cc1Oc1ccc(F)cc1Cl [Compound 14, 4-chloro-2-(2-chloro-4-fluorophenoxy)-N-(2-oxo-1,2-dihydropyridin-4-yl)benzamide] | 65 nM |
| CC(C)(C)Oc1ccc(Oc2ccc(F)cc2C(=O)Nc2cc[nH]c(=O)c2)cc1 [Compound 97, 2-(4-(tert-butoxy)phenoxy)-5-fluoro-N-(2-oxo-1,2-dihydropyridin-4-yl)benzamide] | 745 nM |
| O=C(Nc1cc[nH]c(=O)c1)c1cc(OC(F)(F)F)ccc1Oc1ccccc1 [Compound 41, N-(2-oxo-1,2-dihydropyridin-4-yl)-2-phenoxy-5-(trifluoromethoxy)benzamide] | 260 nM |
| O=C(Nc1cc[nH]c(=O)c1)c1ccc(C(F)(F)F)cc1OC1CC2CCC1C2 (stereo not drawn) [Compound 127, 2-(bicyclo[2.2.1]heptan-2-yloxy)-N-(2-oxo-1,2-dihydropyridin-4-yl)-4-(trifluoromethyl)benzamide] | 1300 nM |
| Cc1ccccc1Oc1cc(C(F)(F)F)ccc1C(=O)Nc1cc[nH]c(=O)c1 [Compound 11, N-(2-oxo-1,2-dihydropyridin-4-yl)-2-(o-tolyloxy)-4-(trifluoromethyl)benzamide] | 56 nM |
| O=C(Nc1cc[nH]c(=O)c1)c1cc(C(F)(F)F)ccc1Oc1ccccc1 [Compound 32, N-(2-oxo-1,2-dihydropyridin-4-yl)-2-phenoxy-5-(trifluoromethyl)benzamide] | 205 nM |
| N#Cc1ccc(C(=O)Nc2cc[nH]c(=O)c2)c(Oc2ccc(F)cc2)c1 [Compound 21, 4-cyano-2-(4-fluorophenoxy)-N-(2-oxo-1,2-dihydropyridin-4-yl)benzamide] | 843 nM |
| O=C(Nc1cc[nH]c(=O)c1)c1cc(OC(F)(F)F)ccc1OCC1CCCC1 [Compound 136, 2-(cyclopentylmethoxy)-N-(2-oxo-1,2-dihydropyridin-4-yl)-5-(trifluoromethoxy)benzamide] | 2600 nM |
| Cc1cc(C)c(Oc2ccc(F)cc2C(=O)Nc2cc[nH]c(=O)c2)cc1C [Compound 105, 5-fluoro-N-(2-oxo-1,2-dihydropyridin-4-yl)-2-(2,4,5-trimethylphenoxy)benzamide] | 3550 nM |
| O=C(Nc1ccc(=O)[nH]c1)c1ccc(C(F)(F)F)cc1Oc1ccc(F)cc1 [Compound 6, 2-(4-fluorophenoxy)-N-(6-oxo-1,6-dihydropyridin-3-yl)-4-(trifluoromethyl)benzamide] | 245 nM |
| COc1ccc(Oc2ccc(F)cc2C(=O)Nc2cc[nH]c(=O)c2)c(Cl)c1 [Compound 103, 2-(2-chloro-4-methoxyphenoxy)-5-fluoro-N-(2-oxo-1,2-dihydropyridin-4-yl)benzamide] | 330 nM |
| O=C(Nc1cc[nH]c(=O)c1)c1c(Oc2ccccc2)cc(C(F)(F)F)cc1C(F)(F)F [Compound 156, N-(2-oxo-1,2-dihydropyridin-4-yl)-2-phenoxy-4,6-bis(trifluoromethyl)benzamide] | 52 nM |
| O=C(Nc1cc[nH]c(=O)c1)c1ccc(Cl)cc1Oc1c(F)cccc1F [Compound 19, 4-chloro-2-(2,6-difluorophenoxy)-N-(2-oxo-1,2-dihydropyridin-4-yl)benzamide] | 6000 nM |
| Cc1ncccc1Oc1ccc(C(F)(F)F)cc1C(=O)Nc1cc[nH]c(=O)c1 [Compound 150, 2-((2-methylpyridin-3-yl)oxy)-N-(2-oxo-1,2-dihydropyridin-4-yl)-5-(trifluoromethyl)benzamide] | 6600 nM |
